Test results from patent US9023789B2, “Amylin analogs and pharmaceutical compositions thereof” (Novo Nordisk A/S, priority 2012, dated 2015).
Numbered stars: 1 amine (or outer) side, 2 acyl side, 3 side chain; on linkers, the order of the positions; unused ones are H or OH. Bridge positions count the residues as written; N and C are the ends. Side chains are listed from the residue outwards. Peptide text beside a SMILES is read from it. * marks the point of attachment. C20 diacid = O=C(O)CCCCCCCCCCCCCCCCCCC(=O)*; γGlu = O=C(O)[C@H](CCC(=O)[*:2])N[*:1]; AEEA = NCCOCCOCC(=O)O

Experiments:
[1] = target: T1, human amylin 3(a) receptor (human calcitonin receptor + RAMP-3) in BHK570 cells (Homo sapiens, UniProt O60896+P30988); experiment: ASSAY (II)a functional assay, human amylin receptor (CRE luciferase); type: cell-based; settings: for EC50: human amylin receptor functional potency, assay (II), read-out: hAmylin-R funct. EC50
T1 construct: expressed in transfected cells
Method in brief: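 Readout is luminescence from a cAMP-responsive CRE-luc reporter, developed with LucLite for 30 min at room temperature. Cells were treated for 3 h at 37 °C in 10% FBS/DMEM buffered with 10 mM Hepes (pH 7.4).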

[2] = target: T2, human amylin receptor (membranes from Amylin 3(a)/CRE-luc cells) (Homo sapiens, UniProt O60896+P30988); experiment: ASSAY (V) binding to the human amylin receptor (SPA, 125I-rat amylin); settings: for IC50: Table 4, read-out: hAmylin-R bind IC50;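 as to all read-outs here: competition binding of cell membranes (35 ng/µL) mixed with SPA beads in 384-well plates at 40 µL total volume, read by scintillation counting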
T2 construct: expressed in transfected cells
T2 sequence (P30988 25-474): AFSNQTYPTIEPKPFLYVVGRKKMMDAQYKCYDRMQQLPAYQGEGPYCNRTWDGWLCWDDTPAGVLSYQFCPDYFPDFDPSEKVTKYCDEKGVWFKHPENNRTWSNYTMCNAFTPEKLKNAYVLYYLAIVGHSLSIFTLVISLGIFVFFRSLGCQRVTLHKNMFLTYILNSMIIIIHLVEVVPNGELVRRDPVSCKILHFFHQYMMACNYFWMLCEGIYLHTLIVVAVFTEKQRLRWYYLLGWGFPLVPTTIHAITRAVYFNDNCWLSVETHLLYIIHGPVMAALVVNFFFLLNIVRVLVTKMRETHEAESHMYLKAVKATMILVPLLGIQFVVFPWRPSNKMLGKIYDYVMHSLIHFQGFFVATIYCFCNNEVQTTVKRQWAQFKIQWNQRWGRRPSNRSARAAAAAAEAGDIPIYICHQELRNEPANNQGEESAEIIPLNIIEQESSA
T2 sequence (O60896 24-148 partner): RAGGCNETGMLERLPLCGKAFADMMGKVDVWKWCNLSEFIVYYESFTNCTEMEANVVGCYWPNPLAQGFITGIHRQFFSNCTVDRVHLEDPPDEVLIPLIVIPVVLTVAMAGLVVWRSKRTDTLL

[3] = target: T3, rat amylin receptor (rat calcitonin receptor + rat RAMP 3) (Rattus norvegicus, UniProt P32214+Q9JJ73); experiment: ASSAY (VI) binding to the rat amylin receptor; settings: for IC50: binding to rat amylin receptor, read-out: rAmylin-R bind IC50
T3 construct: expressed in transfected cells; host or cells: BHK tk'ts 13 (transient, FuGENE 6), membranes
T3 sequence (P32214 25-479 isoform P32214-2 limits assumed): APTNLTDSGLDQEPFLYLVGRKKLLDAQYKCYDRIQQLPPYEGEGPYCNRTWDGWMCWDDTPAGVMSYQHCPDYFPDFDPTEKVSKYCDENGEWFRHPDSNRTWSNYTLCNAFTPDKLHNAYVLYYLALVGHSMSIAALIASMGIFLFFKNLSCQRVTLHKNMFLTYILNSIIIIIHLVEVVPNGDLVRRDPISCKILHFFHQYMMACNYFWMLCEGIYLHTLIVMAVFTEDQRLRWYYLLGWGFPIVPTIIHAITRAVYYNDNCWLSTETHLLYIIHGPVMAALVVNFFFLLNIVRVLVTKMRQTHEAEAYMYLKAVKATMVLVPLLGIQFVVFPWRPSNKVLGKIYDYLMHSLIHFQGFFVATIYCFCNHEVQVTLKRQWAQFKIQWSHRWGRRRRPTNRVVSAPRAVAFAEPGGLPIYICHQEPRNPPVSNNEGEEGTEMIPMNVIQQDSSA
T3 sequence (Q9JJ73 23-147 partner): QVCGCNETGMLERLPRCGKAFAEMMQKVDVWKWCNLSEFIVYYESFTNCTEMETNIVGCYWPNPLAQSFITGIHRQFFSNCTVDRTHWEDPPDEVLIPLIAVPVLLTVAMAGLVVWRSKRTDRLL
Method in brief: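 Membranes for this rat amylin receptor binding assay came from BHK tk′ts 13 cells. The cells were transiently transfected with rat calcitonin receptor using the FuGENE® 6 reagent from Roche, as the manufacturer recommends. The cells were collected approximately 48 hours after transfection, and membranes were then prepared.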

[4] = hCTR funct. EC50 over hAmylin-R funct. EC50
[5] = human functional selectivity: hCTR funct. EC50 / hAmylin-R funct. EC50
[6] = Table 5, selectivity, hCTR bind IC50 / hAmylin-R bind IC50
[7] = Table 5a, selectivity, hCTR bind IC50 / hAmylin-R bind IC50
[8] = Table 5b, selectivity, hCTR bind IC50 / hAmylin-R bind IC50
[9] = Table 5c, selectivity, hCTR bind IC50 / hAmylin-R bind IC50
[10] = Table 7, human binding selectivity, included for comparison
[11] = Table 7a (preferred compounds), human binding selectivity, included for comparison
[12] = ratio of human calcitonin receptor binding IC50 to human amylin receptor binding IC50
[13] = Table 7, rat binding selectivity, rCTR IC50 / rAmylin-R IC50
[14] = Table 7a (preferred compounds), rat binding selectivity, rCTR IC50 / rAmylin-R IC50
[15] = ratio of rCTR bind IC50 to rAmylin-R bind IC50
[16] = hCTR funct. EC50 divided by hAmylin-R funct. EC50

Ratio hCT/hAmylin funct. [1, 4] | EC50 [1] [nM] | Ratio hCT/hAmylin funct. [1, 5] | IC50 [2] [nM] | Ratio hCT/hAmylin binding [2, 6] | Ratio hCT/hAmylin binding [2, 7] | Ratio hCT/hAmylin binding [2, 8] | Ratio hCT/hAmylin binding [2, 9] | Ratio hCT/hAmylin binding [2, 10] | Ratio hCT/hAmylin binding [2, 11] | Ratio hCT/hAmylin binding [2, 12] | IC50 ([3]; Table 7) [nM] | Ratio rCT/rAmylin binding [3, 13] | Ratio rCT/rAmylin binding [3, 14] | Ratio rCT/rAmylin binding [3, 15] | Ratio hCT/hAmylin funct. [1, 16] | Compound
12.0 | 0.224 | 12.0 | 1.18 | 27.6 | 27.6 | 27.6 | 27.6 | 27.6 | 27.6 | 27.6 | 1.3 | 103.9 | 103.9 | 103.9 |  | CC(C)C[C@H](NC(=O)[C@H](CCCNC(=N)N)NC(=O)[C@H](CCC(N)=O)NC(=O)[C@@H](NC(=O)[C@H](C)NC(=O)[C@@H]1CSSC[C@H](NC(=O)[C@@H](N)CCCCNC(=O)CC[C@H](NC(=O)CC[C@H](NC(=O)CCCCCCCCCCCCCCCCCCC(=O)O)C(=O)O)C(=O)O)C(=O)N[C@@H](CC(N)=O)C(=O)N[C@@H]([C@@H](C)O)C(=O)N[C@@H](C)C(=O)N[C@@H]([C@@H](C)O)C(=O)N1)[C@@H](C)O)C(=O)N[C@@H](C)C(=O)N[C@@H](CC(=O)O)C(=O)N[C@@H](Cc1ccccc1)C(=O)N[C@@H](CC(C)C)C(=O)N[C@@H](CCCNC(=N)N)C(=O)N[C@@H](Cc1c[nH]cn1)C(=O)N[C@@H](CO)C(=O)N[C@@H](CO)C(=O)N1CCC[C@H]1C(=O)N[C@@H](CC(N)=O)C(=O)N[C@@H](Cc1ccccc1)C(=O)NCC(=O)N[C@@H](C)C(=O)N1CCC[C@H]1C(=O)N[C@@H](CC(C)C)C(=O)N[C@@H](CO)C(=O)N[C@@H](CO)C(=O)N[C@H](C(=O)N[C@@H](CC(N)=O)C(=O)N[C@H](C(=O)NCC(=O)N[C@@H](CO)C(=O)N[C@@H](CC(=O)O)C(=O)N[C@H](C(=O)N[C@@H](Cc1ccc(O)cc1)C(N)=O)[C@@H](C)O)C(C)C)[C@@H](C)O [Example 1] (H-K([γGlu-γGlu-C20 diacid])CNTATCATQRLADFLRHSSPNFGAPLSSTNVGSDTY-NH2; disulfide 2-7)
 | 0.141 | 6.5 | 0.076 | 34.7 | 34.7 | 34.7 | 34.7 | 34.7 | 34.7 | 34.7 | 0.11 | 69.1 | 69.1 | 69.1 | 6.5 | CC[C@H](C)[C@H](NC(=O)[C@H](C)NC(=O)CNC(=O)[C@H](Cc1ccccc1)NC(=O)[C@H](CC(N)=O)NC(=O)[C@@H]1CCCN1C(=O)[C@H](CO)NC(=O)[C@H](CO)NC(=O)[C@H](Cc1c[nH]cn1)NC(=O)[C@H](CCCNC(=N)N)NC(=O)[C@H](CC(C)C)NC(=O)[C@H](Cc1ccccc1)NC(=O)[C@H](CC(N)=O)NC(=O)[C@H](C)NC(=O)[C@H](CC(C)C)NC(=O)[C@H](CCCNC(=N)N)NC(=O)[C@H](CCC(N)=O)NC(=O)[C@@H](NC(=O)[C@H](C)NC(=O)[C@@H]1CSSC[C@H](NC(=O)[C@@H](N)CCCCNC(=O)COCCOCCNC(=O)CCCCCCCCCCCCCCCCCCC(=O)O)C(=O)N[C@@H](CC(N)=O)C(=O)N[C@@H]([C@@H](C)O)C(=O)N[C@@H](C)C(=O)N[C@@H]([C@@H](C)O)C(=O)N1)[C@@H](C)O)C(=O)N1CCC[C@H]1C(=O)N[C@@H](CO)C(=O)N[C@@H](CO)C(=O)N[C@H](C(=O)N[C@@H](CC(N)=O)C(=O)N[C@H](C(=O)NCC(=O)N[C@@H](CO)C(=O)N[C@@H](CC(N)=O)C(=O)N[C@H](C(=O)N[C@@H](Cc1ccc(O)cc1)C(N)=O)[C@@H](C)O)C(C)C)[C@@H](C)O [Example 43]
30.6 | 0.296 | 30.6 | 0.666 | 91.4 | 91.4 | 91.4 | 91.4 | 91.4 | 91.4 | 91.4 | 4.03 | 109.8 | 109.8 | 109.8 | 30.6 | CC[C@H](C)[C@H](NC(=O)[C@H](C)NC(=O)CNC(=O)[C@H](Cc1ccccc1)NC(=O)[C@H](CC(N)=O)NC(=O)[C@@H]1CCCN1C(=O)[C@H](CO)NC(=O)[C@H](CO)NC(=O)[C@H](Cc1c[nH]cn1)NC(=O)[C@H](CCCNC(=N)N)NC(=O)[C@H](CC(C)C)NC(=O)[C@H](Cc1ccccc1)NC(=O)[C@@H](NC(=O)[C@H](C)NC(=O)[C@H](CC(C)C)NC(=O)[C@H](CCCNC(=N)N)NC(=O)[C@H](CCC(N)=O)NC(=O)[C@@H](NC(=O)[C@H](C)NC(=O)[C@@H]1CSSC[C@H](NC(=O)[C@@H](N)CCCCNC(=O)COCCOCCNC(=O)CC[C@H](NC(=O)CCCCCCCCCCCCCCCCCCC(=O)O)C(=O)O)C(=O)N[C@@H](CC(N)=O)C(=O)N[C@@H]([C@@H](C)O)C(=O)N[C@@H](C)C(=O)N[C@@H]([C@@H](C)O)C(=O)N1)[C@@H](C)O)[C@@H](C)O)C(=O)N1CCC[C@H]1C(=O)N[C@@H](CO)C(=O)N[C@@H](CO)C(=O)N[C@H](C(=O)N1CCC[C@H]1C(=O)N[C@H](C(=O)NCC(=O)N[C@@H](CO)C(=O)N[C@@H](CC(N)=O)C(=O)N[C@H](C(=O)N[C@@H](Cc1ccc(O)cc1)C(N)=O)[C@@H](C)O)C(C)C)[C@@H](C)O [Example 75] (H-K([AEEA-γGlu-C20 diacid])CNTATCATQRLATFLRHSSPNFGAIPSSTPVGSNTY-NH2; disulfide 2-7 (inferred); N-terminus assumed)
6.4 |  | 6.4 |  | 16.0 | 16.0 | 16.0 |  | 16.0 | 16.0 | 16.0 | 0.619 | 42.8 | 42.8 | 42.8 | 6.4 | CC[C@H](C)[C@H](NC(=O)[C@H](C)NC(=O)CNC(=O)[C@H](Cc1ccccc1)NC(=O)[C@H](CC(N)=O)NC(=O)[C@@H]1CCCN1C(=O)[C@H](CO)NC(=O)[C@H](CO)NC(=O)[C@H](Cc1c[nH]cn1)NC(=O)[C@H](CCCNC(=N)N)NC(=O)[C@H](CC(C)C)NC(=O)[C@H](Cc1ccccc1)NC(=O)[C@H](CCC(=O)O)NC(=O)[C@H](C)NC(=O)[C@H](CC(C)C)NC(=O)[C@H](CCCNC(=N)N)NC(=O)[C@H](CCC(N)=O)NC(=O)[C@@H](NC(=O)[C@H](C)NC(=O)[C@@H]1CSSC[C@H](NC(=O)[C@H](CCCCN)NC(=O)CC[C@H](NC(=O)CCCCCCCCCCCCCCCCCCC(=O)O)C(=O)O)C(=O)N[C@@H](CC(N)=O)C(=O)N[C@@H]([C@@H](C)O)C(=O)N[C@@H](C)C(=O)N[C@@H]([C@@H](C)O)C(=O)N1)[C@@H](C)O)C(=O)N1CCC[C@H]1C(=O)N[C@@H](CO)C(=O)N[C@@H](CO)C(=O)N[C@H](C(=O)N1CCC[C@H]1C(=O)N[C@H](C(=O)NCC(=O)N[C@@H](CO)C(=O)N[C@@H](CC(N)=O)C(=O)N[C@H](C(=O)N[C@@H](Cc1ccc(O)cc1)C(N)=O)[C@@H](C)O)C(C)C)[C@@H](C)O [Example 31] ({C20 diacid-γGlu}-KCNTATCATQRLAEFLRHSSPNFGAIPSSTPVGSNTY-NH2; disulfide 2-7 (inferred))
